Test results from PubChem BioAssay (NCI).
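Results reflect a 48-hour exposure of cells in 96-well plates to compound at five concentrations. Here, GI50 denotes the concentration required for 50% inhibition of growth. Definition used: TGI = concentration required for complete inhibition of growth.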

Key:
Assay in all cases: inhibition of tumour cell growth, NCI panel, 48 h
KM12 colon = tested on: KM12 colon
786-0 renal = tested on: 786-0 renal
RPMI-8226 leukemia = tested on: RPMI-8226 leukemia
MDA-MB-435 = tested on: MDA-MB-435
HCC-2998 colon = tested on: HCC-2998 colon
MDA-MB-231 breast = tested on: MDA-MB-231 breast
ACHN renal = tested on: ACHN renal
TK-10 renal = tested on: TK-10 renal
SF-268 CNS = tested on: SF-268 CNS
SN12C renal = tested on: SN12C renal
SF-539 CNS = tested on: SF-539 CNS
SNB-75 CNS = tested on: SNB-75 CNS
SK-MEL-28 melanoma = tested on: SK-MEL-28 melanoma
DU-145 prostate = tested on: DU-145 prostate
UO-31 renal = tested on: UO-31 renal
MALME-3M melanoma = tested on: MALME-3M melanoma
UACC-62 melanoma = tested on: UACC-62 melanoma
MOLT-4 leukemia = tested on: MOLT-4 leukemia
SK-OV-3 ovarian = tested on: SK-OV-3 ovarian
HS 578T breast = tested on: HS 578T breast
CCRF-CEM leukemia = tested on: CCRF-CEM leukemia
HT29 colon = tested on: HT29 colon
UACC-257 melanoma = tested on: UACC-257 melanoma
NCI-H23 lung = tested on: NCI-H23 lung
BT-549 breast = tested on: BT-549 breast
OVCAR-5 ovarian = tested on: OVCAR-5 ovarian
NCI-H522 lung = tested on: NCI-H522 lung
HOP-62 NSCLC = tested on: HOP-62 NSCLC
K-562 leukemia = tested on: K-562 leukemia
A498 renal = tested on: A498 renal
RXF 393 renal = tested on: RXF 393 renal
OVCAR-3 ovarian = tested on: OVCAR-3 ovarian
PC-3 prostate = tested on: PC-3 prostate
SNB-19 CNS = tested on: SNB-19 CNS
M14 melanoma = tested on: M14 melanoma
A549 NSCLC = tested on: A549 NSCLC
MCF7 breast = tested on: MCF7 breast
OVCAR-8 ovarian = tested on: OVCAR-8 ovarian
U251 CNS = tested on: U251 CNS
T-47D breast = tested on: T-47D breast
CAKI-1 renal = tested on: CAKI-1 renal
EKVX NSCLC = tested on: EKVX NSCLC
COLO 205 colon = tested on: COLO 205 colon
NCI-H460 lung = tested on: NCI-H460 lung
SK-MEL-2 melanoma = tested on: SK-MEL-2 melanoma
IGROV1 ovarian = tested on: IGROV1 ovarian
SK-MEL-5 melanoma = tested on: SK-MEL-5 melanoma
SF-295 CNS = tested on: SF-295 CNS
SW-620 colon = tested on: SW-620 colon
HOP-92 NSCLC = tested on: HOP-92 NSCLC
NCI-H226 lung = tested on: NCI-H226 lung
HCT-116 colon = tested on: HCT-116 colon
NCI/ADR-RES ovarian = tested on: NCI/ADR-RES ovarian
HCT-15 colon = tested on: HCT-15 colon
SR leukemia = tested on: SR leukemia
OVCAR-4 ovarian = tested on: OVCAR-4 ovarian
HL-60(TB) leukemia = tested on: HL-60(TB) leukemia
LOX IMVI melanoma = tested on: LOX IMVI melanoma

## COc1cccc(/C(COc2ccc3c(c2)oc(=O)c2ccccc23)=N\O)c1
KM12 colon
  GI50: 15.1 µM
  TGI: 39.1 µM
786-0 renal
  GI50: 16.9 µM
  TGI: 58 µM
RPMI-8226 leukemia
  GI50: 30.3 µM
  TGI: > 100 µM
MDA-MB-435
  GI50: 19.9 µM
  TGI: 52.8 µM
HCC-2998 colon
  GI50: 44.1 µM
  TGI: > 100 µM
MDA-MB-231 breast
  GI50: 22.2 µM
  TGI: 64.5 µM
ACHN renal
  GI50: 26.7 µM
  TGI: > 100 µM
TK-10 renal
  GI50: 33.7 µM
  TGI: > 100 µM
SF-268 CNS
  GI50: > 100 µM
  TGI: > 100 µM
SN12C renal
  GI50: 32.8 µM
  TGI: 96 µM
SF-539 CNS
  GI50: 18.3 µM
  TGI: 44.3 µM
SNB-75 CNS
  GI50: 25.7 µM
  TGI: 76.7 µM
SK-MEL-28 melanoma
  GI50: 84.7 µM
  TGI: > 100 µM
DU-145 prostate
  GI50: 16.9 µM
  TGI: 60.7 µM
UO-31 renal
  GI50: 17.3 µM
  TGI: 34.3 µM
MALME-3M melanoma
  GI50: 33 µM
  TGI: 90.1 µM
UACC-62 melanoma
  GI50: 24.8 µM
  TGI: 82.1 µM
MOLT-4 leukemia
  GI50: 6.63 µM
  TGI: 35 µM
SK-OV-3 ovarian
  GI50: > 100 µM
  TGI: > 100 µM
HS 578T breast
  GI50: 67.1 µM
  TGI: > 100 µM
CCRF-CEM leukemia
  GI50: 23.2 µM
  TGI: > 100 µM
HT29 colon
  GI50: 29.6 µM
  TGI: > 100 µM
UACC-257 melanoma
  GI50: 25 µM
  TGI: 61.1 µM
NCI-H23 lung
  GI50: 33.6 µM
  TGI: > 100 µM
BT-549 breast
  GI50: 23 µM
  TGI: 57.9 µM
OVCAR-5 ovarian
  GI50: > 100 µM
  TGI: > 100 µM
NCI-H522 lung
  GI50: 20.6 µM
  TGI: 61.3 µM
HOP-62 NSCLC
  GI50: 37 µM
  TGI: > 100 µM
K-562 leukemia
  GI50: 13.6 µM
  TGI: 85.3 µM
A498 renal
  GI50: 30.5 µM
  TGI: 81.8 µM
RXF 393 renal
  GI50: 18.4 µM
  TGI: 38.3 µM
OVCAR-3 ovarian
  GI50: 45 µM
  TGI: > 100 µM
PC-3 prostate
  GI50: 29.5 µM
  TGI: > 100 µM
SNB-19 CNS
  GI50: 52 µM
  TGI: > 100 µM
M14 melanoma
  GI50: 32 µM
  TGI: > 100 µM
A549 NSCLC
  GI50: 16.9 µM
  TGI: 51.1 µM
MCF7 breast
  GI50: > 100 µM
  TGI: > 100 µM
OVCAR-8 ovarian
  GI50: 20.8 µM
  TGI: 54 µM
U251 CNS
  GI50: 34.4 µM
  TGI: > 100 µM
T-47D breast
  GI50: 29.4 µM
  TGI: > 100 µM
CAKI-1 renal
  GI50: 26.1 µM
  TGI: 77.2 µM
EKVX NSCLC
  GI50: 12.5 µM
  TGI: 66.2 µM
COLO 205 colon
  GI50: 25.8 µM
  TGI: 75.9 µM
NCI-H460 lung
  GI50: > 100 µM
  TGI: > 100 µM
SK-MEL-2 melanoma
  GI50: 28.6 µM
  TGI: 69 µM
IGROV1 ovarian
  GI50: 28.4 µM
  TGI: 58.5 µM
SK-MEL-5 melanoma
  GI50: 17.1 µM
  TGI: 35.7 µM
SF-295 CNS
  GI50: 33.3 µM
  TGI: > 100 µM
SW-620 colon
  GI50: 42.5 µM
  TGI: > 100 µM
HOP-92 NSCLC
  GI50: 71.8 µM
  TGI: > 100 µM
NCI-H226 lung
  GI50: 27.7 µM
  TGI: 62 µM
HCT-116 colon
  GI50: 13.2 µM
  TGI: 33.4 µM
NCI/ADR-RES ovarian
  GI50: 20 µM
  TGI: > 100 µM
HCT-15 colon
  GI50: 37.2 µM
  TGI: > 100 µM
SR leukemia
  GI50: 10.3 µM
  TGI: > 100 µM

## COc1ccc(NC(=O)Nc2ccccc2CNc2nc(Nc3ccc(OCCN4CCCC4)cc3)ncc2Cl)cc1
OVCAR-4 ovarian
  GI50: 0.879 µM
  TGI: 1.69 µM
KM12 colon
  GI50: 0.947 µM
  TGI: 1.77 µM
786-0 renal
  GI50: 0.882 µM
  TGI: 1.64 µM
RPMI-8226 leukemia
  GI50: 1.73 µM
  TGI: > 50 µM
MDA-MB-435
  GI50: 0.874 µM
  TGI: 1.61 µM
HCC-2998 colon
  GI50: 1.01 µM
  TGI: 2.18 µM
MDA-MB-231 breast
  GI50: 0.953 µM
  TGI: 1.74 µM
ACHN renal
  GI50: 0.862 µM
  TGI: 1.55 µM
TK-10 renal
  GI50: 0.99 µM
  TGI: 1.98 µM
SF-539 CNS
  GI50: 0.825 µM
  TGI: 1.54 µM
SNB-75 CNS
  GI50: 0.755 µM
  TGI: 1.45 µM
SK-MEL-28 melanoma
  GI50: 0.87 µM
  TGI: 1.62 µM
DU-145 prostate
  GI50: 1.24 µM
  TGI: 3.42 µM
UO-31 renal
  GI50: 0.763 µM
  TGI: 1.44 µM
MALME-3M melanoma
  GI50: 0.845 µM
  TGI: 1.58 µM
UACC-62 melanoma
  GI50: 0.869 µM
  TGI: 1.63 µM
HL-60(TB) leukemia
  GI50: 1.15 µM
  TGI: 2.59 µM
HS 578T breast
  GI50: 1.01 µM
  TGI: 2.38 µM
CCRF-CEM leukemia
  GI50: 1.68 µM
  TGI: > 50 µM
HT29 colon
  GI50: 1.1 µM
  TGI: 2.6 µM
UACC-257 melanoma
  GI50: 0.926 µM
  TGI: 1.73 µM
NCI-H23 lung
  GI50: 2.01 µM
  TGI: 8.72 µM
BT-549 breast
  GI50: 0.788 µM
  TGI: 1.54 µM
OVCAR-5 ovarian
  GI50: 1.02 µM
  TGI: 2.08 µM
NCI-H522 lung
  GI50: 1.04 µM
  TGI: 2.31 µM
K-562 leukemia
  GI50: 1.63 µM
  TGI: > 50 µM
A498 renal
  GI50: 0.963 µM
  TGI: 3.27 µM
RXF 393 renal
  GI50: 0.828 µM
  TGI: 1.64 µM
OVCAR-3 ovarian
  GI50: 0.923 µM
  TGI: 1.73 µM
PC-3 prostate
  GI50: 1.2 µM
  TGI: 2.96 µM
SNB-19 CNS
  GI50: 2.14 µM
  TGI: 9.2 µM
M14 melanoma
  GI50: 0.833 µM
  TGI: 1.64 µM
MCF7 breast
  GI50: 0.926 µM
  TGI: 1.78 µM
T-47D breast
  GI50: 1.02 µM
  TGI: 2.54 µM
CAKI-1 renal
  GI50: 0.867 µM
  TGI: 1.61 µM
EKVX NSCLC
  GI50: 2.65 µM
  TGI: 9.45 µM
SK-MEL-2 melanoma
  GI50: 1.12 µM
  TGI: 2.58 µM
IGROV1 ovarian
  GI50: 0.894 µM
  TGI: 1.66 µM
SK-MEL-5 melanoma
  GI50: 0.849 µM
  TGI: 1.55 µM
SF-295 CNS
  GI50: 0.853 µM
  TGI: 1.6 µM
SW-620 colon
  GI50: 1.05 µM
  TGI: 2.5 µM
HOP-92 NSCLC
  GI50: 0.877 µM
  TGI: 2.37 µM
LOX IMVI melanoma
  GI50: 0.894 µM
  TGI: 1.64 µM
HCT-116 colon
  GI50: 0.902 µM
  TGI: 1.75 µM
NCI/ADR-RES ovarian
  GI50: 1.1 µM
  TGI: 2.64 µM
HCT-15 colon
  GI50: 0.878 µM
  TGI: 1.76 µM
SR leukemia
  GI50: 1.54 µM
  TGI: > 50 µM
